# From the supplement of paper PMC10307832
# Compound: CC1(C)CCC(CN2CCN(c3ccc(C(=O)NS(=O)(=O)c4ccc(NCC5CCOCC5)c([N+](=O)[O-])c4)c(Oc4cnc5[nH]ccc5c4)c3)CC2)=C(c2ccc(Cl)cc2)C1 [Venetoclax] + O=C(c1cc(Cc2n[nH]c(=O)c3ccccc23)ccc1F)N1CCN(C(=O)C2CC2)CC1 [Olaparib] (partner 8 µM)
# Experiment: relative viability (nuclei count vs DMSO), 5 days (fraction); higher = more cells survive
# Details: first compound 1 µM
# Method in brief: (§1)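 Lung cancer cell lines in 1536-well plates got either a single drug or a fixed anchor-drug dose together with five library-drug doses (not always all listed) in √10 steps, by pin tool, on the day after seeding. Nuclei were counted after 5 days, and relative viability is the treated-to-vehicle ratio of nuclei counts. Values are medians of duplicate plates.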
row,Cell Line,relative viability
1,NCI-H322M,0.785
2,HCC-78,0.686
3,BEN,1.02
4,HCC-15,0.668
5,HCC-827,0.655
6,NCI-H460,0.398
7,LU99A,0.254
8,NCI-H2085,0.75
9,A-427,0.778
10,NCI-H838,0.764
11,NCI-H1792,0.339
12,NCI-H596,0.759
13,NCI-H3122,0.603
14,NCI-H1395,0.427
15,201T,0.829
16,NCI-H1993,1.08
17,HOP-62,0.394
18,NCI-H1355,0.757

# Compound: Cn1cnc2c(F)c(Nc3ccc(Br)cc3Cl)c(C(=O)NOCCO)cc21 [Selumetinib] + Nc1ncn([C@H]2C[C@H](O)[C@@H](CO)O2)c(=O)n1 [Decitabine] (partner 2 µM)
# Experiment: as above
# Details: first compound 0.02 µM
# Method in brief: as §1
row,Cell Line,relative viability
1,NCI-H1666,0.758
2,NCI-H1755,0.716
3,EPLC-272H,0.364
4,LCLC-97TM1,0.258
5,PC-3 [JPC-3],0.786
6,LOU-NH91,0.782
7,NCI-H647,0.354
8,NCI-H23,0.324
9,EMC-BAC-2,0.991
10,NCI-H2126,0.559
11,HCC-44,1.03
12,NCI-H1734,0.53
13,NCI-H650,0.334
14,LK-2,0.305
15,HARA,0.691
16,LC-2-ad,0.73
17,LXF-289,0.356
18,ChaGo-K-1,0.544
19,NCI-H2170,0.469

row,Cell Line,relative viability
1,NCI-H322M,0.722
2,HCC-78,0.819
3,BEN,0.704
4,HCC-15,0.556
5,HCC-827,0.362
6,NCI-H460,0.432
7,LU99A,0.982
8,NCI-H2085,0.524
9,A-427,0.537
10,NCI-H838,0.446
11,NCI-H1792,0.635
12,NCI-H596,0.927
13,NCI-H3122,0.401
14,NCI-H1395,0.698
15,201T,0.795
16,NCI-H1993,0.571
17,HOP-62,0.164
18,NCI-H1355,0.385

# Same assay, conditions: first compound 0.06325 µM
row,Cell Line,relative viability
1,NCI-H1666,0.682
2,NCI-H1755,0.729
3,EPLC-272H,0.339
4,LCLC-97TM1,0.217
5,PC-3 [JPC-3],0.745
6,LOU-NH91,0.777
7,NCI-H647,0.351
8,NCI-H23,0.268
9,EMC-BAC-2,0.976
10,NCI-H2126,0.513
11,HCC-44,0.982
12,NCI-H1734,0.479
13,NCI-H650,0.283
14,LK-2,0.278
15,HARA,0.502
16,LC-2-ad,0.817
17,LXF-289,0.418
18,ChaGo-K-1,0.539
19,NCI-H2170,0.488

row,Cell Line,relative viability
1,NCI-H322M,0.71
2,HCC-78,0.759
3,BEN,0.733
4,HCC-15,0.449
5,HCC-827,0.317
6,NCI-H460,0.484
7,LU99A,0.905
8,NCI-H2085,0.593
9,A-427,0.575
10,NCI-H838,0.421
11,NCI-H1792,0.486
12,NCI-H596,0.936
13,NCI-H3122,0.394
14,NCI-H1395,0.712
15,201T,0.817
16,NCI-H1993,0.615
17,HOP-62,0.278
18,NCI-H1355,0.357

# Same assay, conditions: first compound 0.2 µM
row,Cell Line,relative viability
1,NCI-H1666,0.689
2,NCI-H1755,0.662
3,EPLC-272H,0.346
4,LCLC-97TM1,0.296
5,PC-3 [JPC-3],0.796
6,LOU-NH91,0.723
7,NCI-H647,0.621
8,NCI-H23,0.319
9,EMC-BAC-2,0.997
10,NCI-H2126,0.564
11,HCC-44,0.962
12,NCI-H1734,0.502
13,NCI-H650,0.342
14,LK-2,0.404
15,HARA,0.602
16,LC-2-ad,0.781
17,LXF-289,0.36
18,ChaGo-K-1,0.48
19,NCI-H2170,0.452

row,Cell Line,relative viability
1,NCI-H322M,0.598
2,HCC-78,0.779
3,BEN,0.714
4,HCC-15,0.438
5,HCC-827,0.351
6,NCI-H460,0.402
7,LU99A,0.91
8,NCI-H2085,0.537
9,A-427,0.53
10,NCI-H838,0.45
11,NCI-H1792,0.52
12,NCI-H596,0.922
13,NCI-H3122,0.401
14,NCI-H1395,0.675
15,201T,0.786
16,NCI-H1993,0.549
17,HOP-62,0.238
18,NCI-H1355,0.377

# Same assay, conditions: first compound 0.6325 µM
row,Cell Line,relative viability
1,NCI-H1666,0.71
2,NCI-H1755,0.73
3,EPLC-272H,0.294
4,LCLC-97TM1,0.197
5,PC-3 [JPC-3],0.798
6,LOU-NH91,0.751
7,NCI-H647,0.447
8,NCI-H23,0.302
9,EMC-BAC-2,0.942
10,NCI-H2126,0.56
11,HCC-44,0.942
12,NCI-H1734,0.528
13,NCI-H650,0.376
14,LK-2,0.399
15,HARA,0.483
16,LC-2-ad,0.776
17,LXF-289,0.437
18,ChaGo-K-1,0.532
19,NCI-H2170,0.439
20,NCI-H322M,0.548
21,HCC-78,0.685
22,BEN,0.731
23,HCC-15,0.392
24,HCC-827,0.448
25,NCI-H460,0.326
26,LU99A,0.759
27,NCI-H2085,0.544
28,A-427,0.55
